Several values for one entry are separate records, joined by “and”; a condition that tells them apart may be missing. Equal entries are not always repeated.
Biological target: telomerase (Homo sapiens, UniProt O14746)
Assay: Direct telomerase repeat addition assay with radiolabeled dNTPs: dNTP titration, repeat processivity R1/2
Type: biochemical
Parameters: made in house; anti-FLAG immunopurification, eluted with 3xFLAG peptide
Details: for Processivity R 1/2: (TTAGGG)3 primer, remaining three natural dNTPs at cellular concentration
Description: This preparation, termed super telomerase, has kinetic properties similar to endogenous telomerase (Supplementary Fig. 1)[29]–[31]. […] Repeat processivity was measured using the convention of calculating the number of repeats synthesized before half of the DNA substrates dissociate from telomerase[33] (Supplementary Fig. 2). 8-oxo-dGTP served as a control since it is an established telomerase chain terminator[12].
Fig. 2 Oxidized and therapeutic dNTPs inhibit telomerase processivity. […] The loading control (*) was a ^32P-end labeled 18-mer oligonucleotide. Numbers on the left indicate the number of added repeats; letters on the right indicate template residue. Images are representative of three independent experiments.
The telomerase assay was as described. […] Reactions containing the modified dNTPs (Trilink Biotechnologies) substituted for their natural dNTP analog are indicated in the figure legends. The reactions were started by the addition of 3 μl (~35 fmol) of immunopurified telomerase eluent, incubated at 37 °C for 1 h, then terminated with 2 μl of […] EDTA and heat inactivated at 65 °C for 20 min. ^32P-end labeled 18-mer loading control (8 fmol) was added to the terminated reactions before purification with an Illustra Microspin G-25 column (GE Healthcare). An equal volume of loading buffer (94% formamide, 0.1× TBE, 0.1% bromophenol blue, 0.1% xylene cyanol) was added to the reaction eluent from the G-25 spin column. The samples were heat denatured for 10 min at 100 °C and loaded onto a 14% denaturing polyacrylamide gel (7 M urea, 1× TBE) and electrophoresed for 90 min at constant 38 W. Samples were imaged using a Typhoon phosphorimager (GE Healthcare).
The processivity was calculated as described[40],[67]. Repeat processivity from the direct telomerase extension assays was calculated as R1/2 (equivalent to the half-time for decay in an exponential time course), which represents the median length of DNA product formed, expressed in terms of number of telomere repeats. First, the total volume counts for each product band extend by one or more telomere repeats were obtained using Image Quant TL. The volume counts were then normalized by dividing by the number of radiolabeled guanosines incorporated into the extended products based on the number of repeats added, termed corrected volume (corr vol). The “percent left behind” (%LB) was calculated for each product band by summing the counts for that product band and for every product band below (shorter products), divided by the total counts for the lane, and then multiplied by 100. The natural log of (100−%LB) was calculated and then plotted vs. repeat number for each product length. A linear regression line was fit to the data to determine the slope of the line. The R1/2 value was calculated by dividing −ln(2) by the slope of each fitted line (R1/2 = −ln(2)/slope).
Number of Repeats Number of Repeats Number of Repeats Number of Repeats
Supplementary Fig 2.Telomerase dNTP titrations and processivity calculations. Telomerase reactions were conducted with (TTAGGG) 3 primer 1 and cellular-concentration dNTPs except that the […]
The loading control (LC) was a 32P-end labeled 18-mer. Numbers on the left indicate the number of added repeats. (d) Processivity was calculated as R1/2 (see Methods). (e) The natural log of (100-%LB) was plotted vs repeat number. A straight line was fit to the data and the R1/2 was calculated by dividing –ln(2) by the slope of each line. Plots shown from one experiment. Images ( a-c) and plots ( e) are representative of, and data are mean + s. d. (d) from, three independent experiments. Source data are provided as a Source Data file.
(1 picture or pasted object on this page, not shown here)

[1] = indicated dNTP at 0.5 μM, n1-n3
[2] = 5μM titrated dNTP, telomere repeat 1
[3] = 25μM titrated dNTP, telomere repeat 1

Sequence of telomerase (O14746 whole entry): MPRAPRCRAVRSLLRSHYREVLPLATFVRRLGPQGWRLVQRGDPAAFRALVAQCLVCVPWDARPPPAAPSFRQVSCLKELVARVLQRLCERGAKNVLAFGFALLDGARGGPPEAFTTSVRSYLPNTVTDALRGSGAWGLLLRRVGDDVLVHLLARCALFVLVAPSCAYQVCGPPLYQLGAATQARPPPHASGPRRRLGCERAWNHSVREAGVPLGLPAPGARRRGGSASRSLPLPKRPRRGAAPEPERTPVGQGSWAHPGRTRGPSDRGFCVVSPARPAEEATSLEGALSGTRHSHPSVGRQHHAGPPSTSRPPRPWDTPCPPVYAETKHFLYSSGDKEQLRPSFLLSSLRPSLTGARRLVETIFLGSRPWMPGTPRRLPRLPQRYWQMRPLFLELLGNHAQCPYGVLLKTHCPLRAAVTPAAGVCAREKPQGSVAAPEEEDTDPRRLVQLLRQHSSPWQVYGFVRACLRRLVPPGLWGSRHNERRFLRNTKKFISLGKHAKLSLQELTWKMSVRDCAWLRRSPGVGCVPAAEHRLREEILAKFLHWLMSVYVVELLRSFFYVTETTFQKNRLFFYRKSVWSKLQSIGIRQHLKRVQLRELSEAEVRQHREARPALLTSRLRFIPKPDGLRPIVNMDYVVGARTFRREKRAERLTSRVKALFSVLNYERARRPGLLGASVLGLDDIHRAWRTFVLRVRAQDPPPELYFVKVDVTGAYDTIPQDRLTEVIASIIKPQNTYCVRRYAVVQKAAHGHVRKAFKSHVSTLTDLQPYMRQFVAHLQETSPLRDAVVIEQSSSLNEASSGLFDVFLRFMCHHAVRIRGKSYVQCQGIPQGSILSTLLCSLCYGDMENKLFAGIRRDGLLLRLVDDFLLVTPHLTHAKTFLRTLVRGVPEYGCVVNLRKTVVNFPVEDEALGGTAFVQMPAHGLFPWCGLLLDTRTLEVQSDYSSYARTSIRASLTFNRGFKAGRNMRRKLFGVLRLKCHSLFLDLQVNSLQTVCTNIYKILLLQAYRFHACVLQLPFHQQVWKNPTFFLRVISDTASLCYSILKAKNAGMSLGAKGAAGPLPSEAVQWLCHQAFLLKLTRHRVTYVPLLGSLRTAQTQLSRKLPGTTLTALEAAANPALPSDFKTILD

Row | SMILES | Processivity R 1/2 (indicated dNTP at 0.5 μM, Mean) | Processivity R 1/2 [1] | Processivity R 1/2 (indicated dNTP at 1 μM, Mean) | Processivity R 1/2 (indicated dNTP at 1 μM, n1-n3) | Processivity R 1/2 (indicated dNTP at 5 μM, Mean) | Processivity R 1/2 (indicated dNTP at 5 μM, n1-n3) | Processivity R 1/2 (indicated dNTP at 24 μM, Mean) | Processivity R 1/2 (indicated dNTP at 24 μM, n1-n3) | further results
1 | Nc1nc(O)nc2c1ncn2C1CC(O)C(COP(=O)(O)OP(=O)(O)OP(=O)(O)O)O1 (stereo not shown) [2-OH-dATP] | 0.46 | 0.46 and 0.39 and 0.53 | 0.43 | 0.30 and 0.39 and 0.59 | 0.57 | 0.42 and 0.69 and 0.61 | 0.66 | 0.46 and 0.70 and 0.83 | YIntercept (best-fit line of ln(100-%LB) vs repeat number) (2-OH-dATP 0.5μM, single experiments): 2.12 and 4.01 and 2.03; YIntercept (best-fit line of ln(100-%LB) vs repeat number) (2-OH-dATP 1μM, single experiments): 2.17 and 3.36 and 2.82; ln(100-%LB) (2-OH-dATP 5μM, 1 telomere repeat, single experiments): 1.89 and 1.96 and 2.94; YIntercept (best-fit line of ln(100-%LB) vs repeat number) (2-OH-dATP 5μM, single experiments): 3.87 and 3.78 and 4.14; ln(100-%LB) (2-OH-dATP 25μM, 1 telomere repeat, single experiments): 2.24 and 2.45; ln(100-%LB) (2-OH-dATP 25μM, 2 telomere repeats, single experiments): 0.15 and 0.23; YIntercept (best-fit line of ln(100-%LB) vs repeat number) (2-OH-dATP 25μM, single experiments): 3.63 and 4.14
2 | Nc1nc2c(ncn2C2CC(O)C(COP(=O)(O)OP(=O)(O)OP(=O)(O)O)O2)c(=S)[nH]1 (stereo not shown) [6-thio-dGTP] | 0 | 0 | 0 | 0 | 0 | 0 | 0 | 0 | 
3 | Nc1ncnc2c1[nH]c(=O)n2C1CC(O)C(COP(=O)(O)OP(=O)(O)OP(=O)(O)O)O1 (stereo not shown) [8-oxo-dATP] | 0 | 0 | 0 | 0 | 0 | 0 | 0 | 0 | 
4 | Nc1nc2c([nH]c(=O)n2C2CC(O)C(COP(=O)(O)OP(=O)(O)OP(=O)(O)O)O2)c(=O)[nH]1 (stereo not shown) [8-oxo-dGTP] | 0 | 0 | 0 | 0 | 0 | 0 | 0 | 0 | 
5 | Cc1cn([C@H]2C[C@H](N=[N+]=[N-])[C@@H](CO[P@](=O)(O)O[P@](=O)(O)OP(=O)(O)O)O2)c(=O)[nH]c1=O [AZT-TP] | 0 | 0 | 0 | 0 | 0 | 0 | 0 | 0 | 
6 | Nc1ncnc2c1ncn2C1CC(O)C(COP(=O)(O)OP(=O)(O)OP(=O)(O)O)O1 (stereo not shown) [dATP] | 1.28 | 0.99 and 1.34 and 1.51 | 1.47 | 1.33 and 1.42 and 1.67 | 2.10 | 1.66 and 2.20 and 2.43 | 2.21 | 1.90 and 2.36 and 2.37 | YIntercept (line, best-fit value) of ln(100-%LB) vs # telomere repeats (0.5μM titrated dNTP): 4.31 and 3.25 and 4.01; YIntercept (line, best-fit value) of ln(100-%LB) vs # telomere repeats (1μM titrated dNTP): 4.44 and 2.47 and 4.49; ln(100-%LB) (1μM titrated dNTP, telomere repeat 3): 2.47 and 1.35 and 2.09; YIntercept (line, best-fit value) of ln(100-%LB) vs # telomere repeats (5μM titrated dNTP): 4.00 and 3.98 and 2.64; ln(100-%LB) [2]: 3.97 and 2.20; ln(100-%LB) (5μM titrated dNTP, telomere repeat 2): 3.54 and 1.95; ln(100-%LB) (5μM titrated dNTP, telomere repeat 3): 3.04 and 3.01 and 1.68; YIntercept (line, best-fit value) of ln(100-%LB) vs # telomere repeats (25μM titrated dNTP): 3.73 and 2.10; ln(100-%LB) [3]: 3.90 and 2.05
7 | Nc1nc2c(ncn2C2CC(O)C(COP(=O)(O)OP(=O)(O)OP(=O)(O)O)O2)c(=O)[nH]1 (stereo not shown) [dGTP] | 1.69 | 1.96 and 1.27 and 1.84 | 1.78 | 1.97 and 1.53 and 1.85 | 2.39 |  | 5.11 |  | ln(100-%LB) (0.5μM titrated dNTP, telomere repeat 8): -4.24; ln(100-%LB) (0.5μM titrated dNTP, telomere repeat 9): -4.48; ln(100-%LB) (0.5μM titrated dNTP, telomere repeat 10): -4.75; ln(100-%LB) (0.5μM titrated dNTP, telomere repeat 11): -4.99
8 | Cc1cn(C2CC(O)C(COP(=O)(O)OP(=O)(O)OP(=O)(O)O)O2)c(=O)[nH]c1=O (stereo not shown) [dTTP] | 1.28 | 1.27 and 1.42 and 1.15 | 1.90 | 1.45 and 1.97 and 2.27 | 2.06 | 1.59 and 1.96 and 2.62 | 1.95 |  | YIntercept (line, best-fit value) of ln(100-%LB) vs # telomere repeats (0.5μM titrated dNTP): 4.06 and 3.53 and 2.25; YIntercept (line, best-fit value) of ln(100-%LB) vs # telomere repeats (1μM titrated dNTP): 3.61 and 3.41 and 1.82; ln(100-%LB) (1μM titrated dNTP, telomere repeat 1): 3.41 and 3.35 and 1.72; ln(100-%LB) [2]: 1.67 and 3.31 and 3.28; YIntercept (line, best-fit value) of ln(100-%LB) vs # telomere repeats (25μM titrated dNTP): 3.33 and 3.39 and 1.96; ln(100-%LB) [3]: 3.18 and 3.21 and 2.13; ln(100-%LB) (25μM titrated dNTP, telomere repeat 2): 2.32 and 2.36 and 1.43; ln(100-%LB) (25μM titrated dNTP, telomere repeat 3): 1.64 and 1.63 and 0.90
9 | O=c1[nH]cnc2c1ncn2C1CCC(COP(=O)(O)OP(=O)(O)OP(=O)(O)O)O1 (stereo not shown) [ddITP] | 0 | 0 | 0 | 0 | 0 | 0 | 0 | 0 | 

From article PMC7576608, “Mechanisms of telomerase inhibition by oxidized and therapeutic dNTPs” (Nature Communications, 2020)
